Assay results: patent publication US20260083126A1, “ANTIMICROBIAL COMPOSITIONS” (AHV International B.V., priority 2022, published 2026)
“Also recorded” adds a separate entry of the source.

What was measured:
[1] = tested on: Staphylococcus epidermis ATCC 35984 biofilm; assay: MBIC assay (crystal violet); type: cell-based, Staphylococcus epidermidis; details: 48 h at 37° C., absorbance 540 nm
Protocol: The exact weighed amount was noted and the volume of solvent to reach a 80 mM dilution calculated. Half of the volume was added first, by adding Tween 80 and let stand for 5 minutes. In a second step, the other half of the volume DMSO was added and resuspended to help the dilution process. The closed tube was inverted 5-10 times and then vortexed very thoroughly for at least 30 seconds. If after this procedure crystals were still visible, the tube was placed in a shaker at 37° C. at 150 rpm for at least 30 minutes (it is indicated if the dissolution period was longer than 2 h). […] In case of Bis(4-Chlorophenyl) thiosulfonate, a lower concentrated stock solution of 2 mM needed to be prepared. For that, the required amount of compound was weighed in and 2% v/v Tween80 and 2% v/v DMSO of the end volume of the stock solution was added to the substance. This mix was heated in a water bath set to 40° C. and occasionally shaken. When the whole amount of the substance reached dissolution, the volume was filled up with growth medium until the end volume. This 2 mM stock solution of Bis(4-Chlorophenyl) thiosulfonate was used in the MIC plate and diluted two-fold, resulting in a testing range of Bis(4-Chlorophenyl) thiosulfonate from 1 mM to 0.002 mM.
Frozen aliquots of Staphylococcus epidermis ATCC 35984 and Pseudomonas aeruginosa ATCC 27853 were used to inoculate a tryptic soy agar (TSA) plate and were incubated overnight at 37° C. After incubation 3-5 well-isolated colonies with the same morphology were selected from the TSA plate and resuspended in 2 ml 0.9% saline solution with 3-6 glass beads and vortexed. The optical density of the bacterial suspension was measured at 600 nm (OD600) with a spectrophotometer (Evolution™ 201/220 UV-Visible Spectrophotometer, Thermo Fisher Scientific) and diluted to an OD600 of 0.2. The MBIC assay was performed in a 96-microtiter plate. […] The solution was resuspended and transferred to a flat-bottom 96-well plate and the absorbance measured at 540 nm with the spectrophotometer. […]

[2] = tested on: Escherichia coli ATCC 25922; assay: MBC assay (Minimal Bactericide Concentration); type: cell-based; details: for MBC Escherichia coli: ATCC 25922, n = 3, no colonies on agar plate after 20 h; for effect at concentrations of growth inhibition (MIC90), E. coli: MBC compared to MIC90
Protocol: (§1) Hereafter, the stock solutions of the compounds were used in three repetitions in a minimal inhibitory concentration (MIC) assay at a 2-fold dilution range with various bacteria from the gram-positive and gram-negative group and a yeast, Candida albicans. The concentrations that show only less than 10% growth after 24 h were considered the MIC90-values, whereas the concentrations that show 50% growth after 24 h when compared to the bacterial growth control were considered the MIC50-values. Escherichia coli and Staphylococcus aureus were used as representatives for a gram-negative bacteria and gram-positive bacteria, respectively. Furthermore, the yeast C. albicans was also tested.
(§2) The Minimal Bactericide Concentration (MBC) of two compounds were determined, namely diisopropyl thiosulfonate and di-n-propyl thiosulfonate. […] This assay was performed per strain of E. coli, S. aureus, and C. albicans three independent times. Therefore, the standard deviation could also be calculated (Table 10).

Candida albicans Y01-19 = assay: MBC assay (Minimal Bactericide Concentration); type: cell-based; details: for effect at concentrations of growth inhibition (MIC90), C. albicans: MBC compared to MIC90; for MBC Candida albicans: Y01-19, n = 3, no colonies on agar plate after 20 h
Protocol: as §1, §2

[3] = tested on: Staphylococcus aureus LUH 14616; assay: MBC assay (Minimal Bactericide Concentration); type: cell-based; details: for MBC Staphylococcus aureus: LUH 14616, n = 3, no colonies on agar plate after 20 h; for effect at concentrations of growth inhibition (MIC90), S. aureus: higher MBC values compared to MIC90 values
Protocol: as §1, §2

HepG2 cell line = assay: MTT cytotoxicity test; type: cell-based, human; details: 24 h, 7.8 μM to 1 mM, emulsified with Tween-80/DMSO
Protocol: Scope. As standard tests cytotoxicity is measured on Caco-2 and HepG2 cell lines. Cytotoxicity of mentioned cell lines was determined by measuring the amount of converted MTT (3-(4,5-dimethylthiazol-2-yl)-2,5-diphenyltetrazolium bromide) by a mitochondrial dehydrogenase after exposure of various concentrations of the antimicrobial compounds. In living cells the dehydrogenase converts the soluble MTT into water insoluble purple formazan crystals that can not pass the cell membrane. The higher the metabolic activity of the cell, the more purple crystals are formed, the lower the cytotoxicity of the antimicrobial compound. HepG2 adherent cells were isolated from human liver and show epithelial morphology. Culture condition of the cells were followed based on the standard protocols. HepG2 cell line was cultured in 75-cm^2 culture flasks. Dulbecco's modified Eagle's minimum essential medium (DMEM)+Glutamax, supplemented with 10% (v/v) inactivated fetal calf serum (FCS) (Gibco), and penicillin (100 U/ml.)/streptomycin (100 μg/ml.) was utilized as medium for the growing cells. The cells were preserved in an incubator to provide them with the optimum moisture and temperature (humidified atmosphere of 95% air and 5% CO2 at 37° C. for 72 hours). The cells were grown on flat bottom 96-well plates to the appropriate density to run the experiments. The cells were exposed to increasing concentrations of emulsified test compound (8 concentration, ranging from 7.8 μM to 1 mM) in standard culture medium (Catalogue 31331028, ThemoFischer Scientific) for each cell line. It should be noted that all the experiments were conducted in FBS (Catalog A3840101, ThermoFischer Scientific) and antibiotic free medium. The concentration of Tween-80 and DMSO that is present in the assay to emulsify the antimicrobial compound was in the range from 0,007% to 1%. The cells were incubated for 24 h with emulsified test compound and the assay was performed based on the standard protocol. By the end of the experiment the medium (cell supernatants) was removed and the lysis buffer (0.04 M hydrochloric acid, in propan-2-ol) was added to each well to solubilize the purple formazan crystals. As the final step, the absorbance was recorded by a multi-well reader at 595 nm. Control experiment with emulsifiers Tween 80 and DMSO but without antimicrobial compounds was performed in a same way on both cell lines. The results from all experiments were expressed as mean #standard error of the mean (SEM) conducted in triplicate (three wells/condition) of three independent experiments. Differences between results were statistically evaluated using One-way ANOVA with Bonferroni post-hoc test.

[4] = listed as diisopropyl thiosulfonate Batch A
[5] = listed as diisopropyl thiosulfonate Batch C

SMILES	S. epidermidis MBIC90 [1]	MBC Escherichia coli [2]	effect at concentrations of growth inhibition (MIC90), E. coli [2]	effect at concentrations of growth inhibition (MIC90), C. albicans (Candida albicans Y01-19)	effect at concentrations of growth inhibition (MIC90), S. aureus [3]	cytotoxic effect on HepG2 cells (MTT) (HepG2 cell line)	also measured
CCCSS(=O)(=O)CCC [Di-n-propyl thiosulfonate, reference compound]	2 mM	208 µM	bactericidal effect	bactericidal effect	bacteriostatic effect		MBC Candida albicans (Candida albicans Y01-19): 25 µM; MBC Staphylococcus aureus [3]: 1083 µM
CCCSSCCC [Di-n-propyl disulfide, reference compound]	4 mM						
Fc1ccc(SSc2ccc(F)cc2)cc1 [Bis (4-fluorophenyl) disulfide, Bis(4-fluorophenyl) disulfide]						cytotoxic effects	
CC(C)SS(=O)(=O)C(C)C [Di-isopropyl thiosulfonate]		219 µM	bactericidal effect	bactericidal effect	bacteriostatic effect	cytotoxic effects; also recorded: cytotoxicity is lowest	MBC Candida albicans (Candida albicans Y01-19; [4]): 75 µM; MBC Candida albicans (Candida albicans Y01-19; [5]): 50 µM; MBC Staphylococcus aureus [3, 4]: 1500 µM; MBC Staphylococcus aureus [3, 5]: 1833 µM
O=S(=O)(Sc1ccc(Cl)cc1)c1ccc(Cl)cc1 [Bis (4-chlorophenyl) thiosulfonate, Bis(4-chlorophenyl) thiosulfonate]						cytotoxic effects	
Clc1ccc(SSc2ccc(Cl)cc2)cc1 [Bis (4-chlorophenyl) disulfide, Bis(4-chlorophenyl) disulfide]	>4 mM					cytotoxic effects	
